From patent US11896564B2, “Medical treatment for pathologic inflammation” (PHARMACYL AB, priority 2018, dated 2024)
Counter-ions that a name gives are not always drawn.

Experiments:
[1] = test system: LPS-induced TNF-α production in RAW264.7 murine macrophage cells; assay: Suppression of LPS-induced TNF-α production in RAW264.7 macrophages (ELISA); format: cell-based; conditions: Mus musculus; 1 mM test substance; LPS 1 μg/ml; RAW264.7 cells
Excerpt: UC is an inflammatory disease characterized by the infiltration of inflammatory cells, such as macrophages, into the lesioned colon. Macrophages serve a critical role in the initiation and propagation of inflammatory responses by releasing proinflammatory mediators, such as TNF-α. Lipopolysaccharide (LPS) is a potent initiator of an inflammatory response. During LPS stimulation, NF-κB signaling is activated to regulate the transcription of numerous genes involved in immunity and inflammation to produce proinflammatory cytokines, such as TNF-α. Suppression of LPS-induced TNF-α production in RAW264.7 macrophages treated with AABZ was investigated by evaluation of the generation of TNF-α. The aim of this study was to evaluate the anti-inflammatory activity of AABZ.
The RAW264.7 macrophage line was maintained in DMEM supplemented with 5% FBS at 37° C. in a 5% […] air environment. The RAW264.7 cells were seeded in 96-well plates at a density of 1×10^5/ml and a volume of 200 μl/well. […] The supernatants were subsequently harvested at various time points and production of the proinflammatory cytokine TNF-α in the culture medium was determined using a commercially available enzyme-linked immunosorbent assay (ELISA) kit according to the manufacturer's protocol. […]

[2] = test system: DSS-induced acute colitis in Balb/c mice; assay: Dextran sulfate sodium (DSS)-induced acute colitis, disease activity index; format: in vivo; conditions: day 5
Protocol: The experiment was performed using 6-8-week-old female Balb/c mice after a one-week acclimatization period. The mice weighed 18-25 g, were purchased from Taconic (Denmark) and were maintained in a temperature and light-controlled facility with free access to standard rodent chow and water. Mice were randomized to the respective groups five days before start of treatment and were kept 5 to 6 animals per cage. […] The DSS intake was assessed daily.
SASP (from Sigma-Aldrich, Sweden) was first dissolved in 0.2 M sodium hydroxide (NaOH) at a concentration higher than the required final concentration. Phosphate buffered saline (PBS) was added to the desired concentration and the pH was adjusted to 7.5-8.0 with NaOH or hydrochloric acid. SASP remained completely dissolved at this pH. Cpd A hydrochloride was dissolved in PBS to the desired concentration.
All animal groups had free access to 5% DSS water solution for the entire test period. Treatments were administered from day 0 to day 5, either orally by gavage (SASP) or intraperitoneally (Cpd A), and in an administration volume of 5 ml/kg, twice daily with approximately an 8-hour interval. The control group (DSS only) received water (0.2 ml) orally twice daily. The parameters recorded in the experiment were stool consistency (0, normal; 2, loose stools; 4, watery diarrhoea), occurrence of blood in the stool (0, normal; 2, Hemoccult+; 4, gross bleeding), and body weight loss (0, none; 1, 1-5%; 2, 5-10%; 3, 10-20%; 4, >20%). Disease activity index (DAI) was calculated by summarizing the scores of these three parameters. Also the colon length and the colonic content of myeloperoxidase (MPO) were recorded. Data was statistically evaluated with analysis of variance (ANOVA). Least-squares means (LS means), and standard error (SE) of LS means were calculated.

CCN(CC)CCNC(=O)c1ccc(NC(C)=O)cc1 [4-Acetamido-N-[2-(diethylamino)ethyl]benzamide hydrochloride]
inhibition at 1000 µM [1]: 56%

CCN(CC)CCNC(=O)c1ccc(NC(C)=O)c(Cl)c1 [Cpd A, 4-Acetamido-3-chloro-N-[2-(diethylamino)ethyl]benzamide hydrochloride]
Percent Reduction of Score (Disease Activity Index) vs control ([2]; Cpd A 50 mg/kg/day bid ip): 7%

O=C(O)c1cc(/N=N/c2ccc(S(=O)(=O)Nc3ccccn3)cc2)ccc1O [SASP, sulfasalazine]
Disease Activity Index LS means ± SE ([2]; SASP 20 mg/kg/day bid po): 6.4 ± 0.5 | Percent Reduction of Score (Disease Activity Index) vs control ([2]; SASP 20 mg/kg/day bid po): 8% | Percent Reduction of Score (Disease Activity Index) vs control ([2]; SASP 40 mg/kg/day bid po): 36%
